Data: ChEMBL document CHEMBL1137115, “Preparation of novel aza-1,7-annulated indoles and their conversion to potent indolocarbazole kinase inhibitors” (Bioorg Med Chem Lett, 2004)

Columns and labels:
[1] = target: Cyclin-dependent kinase 4/cyclin D1 (Homo sapiens, UniProt P11802); test: Inhibition of Cyclin D1-cyclin-dependent kinase 4; type: protein-complex assay
[2] = Inhibition of Protein kinase A
HCT-116 = test: Antiproliferative activity was tested in human HCT116 (colon) cell line; type: functional, cell-based
[3] = target: Cyclin-dependent kinase 2/cyclin E (Homo sapiens, UniProt P24941); test: Inhibition of Cyclin E-cyclin-dependent kinase 2; type: protein-complex assay

Sequence of Cyclin-dependent kinase 4/cyclin D1 (P11802 whole entry): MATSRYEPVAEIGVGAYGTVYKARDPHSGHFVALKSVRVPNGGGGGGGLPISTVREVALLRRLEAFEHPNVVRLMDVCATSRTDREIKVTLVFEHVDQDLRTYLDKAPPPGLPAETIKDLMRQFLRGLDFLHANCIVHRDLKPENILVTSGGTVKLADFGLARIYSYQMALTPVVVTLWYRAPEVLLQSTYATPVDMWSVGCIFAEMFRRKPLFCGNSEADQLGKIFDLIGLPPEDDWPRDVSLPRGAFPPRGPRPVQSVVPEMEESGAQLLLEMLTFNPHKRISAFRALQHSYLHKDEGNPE
Sequence of Cyclin-dependent kinase 4/cyclin D1 (P24385 whole entry, further chain): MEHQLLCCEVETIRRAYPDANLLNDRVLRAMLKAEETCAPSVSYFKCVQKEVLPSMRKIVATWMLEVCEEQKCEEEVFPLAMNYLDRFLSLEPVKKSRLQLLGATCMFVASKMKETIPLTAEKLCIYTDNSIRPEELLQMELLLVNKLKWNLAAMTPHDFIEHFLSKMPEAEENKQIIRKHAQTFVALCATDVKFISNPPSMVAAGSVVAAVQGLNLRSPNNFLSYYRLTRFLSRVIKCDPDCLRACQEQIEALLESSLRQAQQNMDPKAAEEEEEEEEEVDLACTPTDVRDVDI

## Cc1cn(S(=O)(=O)N2CCn3c4c(cccc4c4c5c(c6c7ccccc7[nH]c6c43)C(=O)NC5=O)C2)cn1
[1]
  IC50: 120 nM
[2]
  IC50: > 2000 nM
HCT-116
  IC50: > 10000 nM

## CS(=O)(=O)N1CCn2c3c(cccc3c3c4c(c5c6ccccc6[nH]c5c32)C(=O)NC4=O)C1
[3]
  IC50: > 200 nM
[1]
  IC50: 50 nM
[2]
  IC50: > 2000 nM
HCT-116
  IC50: 1600 nM

## CC(C)N1CCn2c3c(cccc3c3c4c(c5c6ccccc6[nH]c5c32)C(=O)NC4=O)C1
[3]
  IC50: 780 nM
[1]
  IC50: 70 nM
[2]
  IC50: > 2000 nM
HCT-116
  IC50: 640 nM

## NCC(=O)N1CCn2c3c(cccc3c3c4c(c5c6ccccc6[nH]c5c32)C(=O)NC4=O)C1
[2]
  IC50: > 20000 nM
HCT-116
  IC50: > 10000 nM

## O=C1NC(=O)c2c1c1c3ccc(C(F)(F)F)c(CO)c3[nH]c1c1c2c2cccc3c2n1CCNC3
[1]
  IC50: 40 nM
HCT-116
  IC50: 3500 nM

## O=C1NC(=O)c2c1c1c3cc(F)ccc3[nH]c1c1c2c2cccc3c2n1CCNC3
[3]
  IC50: > 200 nM
[1]
  IC50: 30 nM
[2]
  IC50: 200 nM
HCT-116
  IC50: 260 nM

## O=C1NC(=O)c2c1c1c3ccc(C(F)(F)F)cc3[nH]c1c1c2c2cccc3c2n1CCNC3
[3]
  IC50: 210 nM
[1]
  IC50: 60 nM
[2]
  IC50: > 2000 nM
HCT-116
  IC50: 170 nM

## O=C1NC(=O)c2c1c1c3ccccc3[nH]c1c1c2c2cccc3c2n1CCCCNC3
[3]
  IC50: 200 nM
[1]
  IC50: 80 nM
[2]
  IC50: 40 nM
HCT-116
  IC50: 90 nM

## O=C1NC(=O)c2c1c1c3cc(F)c(F)cc3[nH]c1c1c2c2cccc3c2n1CCNC3
[3]
  IC50: > 200 nM
[2]
  IC50: > 2000 nM
HCT-116
  IC50: 400 nM

## O=C1NC(=O)c2c1c1c3ccccc3[nH]c1c1c2c2cccc3c2n1CCNC3
[3]
  IC50: 30 nM
[1]
  IC50: 27 nM
[2]
  IC50: 160 nM
HCT-116
  IC50: 310 nM

## O=C1NC(=O)c2c1c1c3ccc(F)cc3[nH]c1c1c2c2cccc3c2n1CCNC3
[3]
  IC50: 10 nM
[1]
  IC50: 30 nM
[2]
  IC50: 430 nM
HCT-116
  IC50: 200 nM
